Laboratory results from patent US20100137346A1, “DESFE[…] ACTINIDE DEC[…]” (priority 2006, published 2010).

What was measured:
[1] = in vivo; cited from earlier work
[2] = Chelator-induced uranium excretion (urine + bile, 24 h) in bile duct-cannulated rat model; assay type: in vivo
Outline: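 Bile duct-cannulated rats received uranyl acetate dihydrate subcutaneously at 5 mg/kg, equal to 2.8 mg/kg uranium, and were then given a chelator. Urine and bile were collected for 24 hours and uranium was quantified by ICPMS. Results give total uranium excreted (urine + bile), the urine/bile split, the percentage of the administered dose cleared, and excretion relative to 14 pooled uranyl acetate-only controls. Each group had at least three animals.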

[3] = Renal uranium content in uranyl acetate-treated bile duct-cannulated rats (FIG. 3); assay type: in vivo, rat
Description: Desferrithiocin Analogue Induced Excretion of Uranium. In order to compare results with previous chelator-induced iron excretion data, the uranium clearance studies were carried out in a bile duct-cannulated rat model. The animals were given uranyl acetate dihydrate SC at a dose of 5 mg/kg (the actual dose of uranium is 2.8 mg/kg). Bile and urine samples were collected for 24 hours after dosing. Kidneys were removed from selected animals and tissue uranium concentration measured. At least three animals were utilized in each experimental group. Data from two separate control studies (uranyl acetate/ no chelator) have now been combined for a total of 14 control animals. All uranium concentrations were measured using ICPMS. The data are reported as the total quantity of uranium excreted [urine +bile]; the mode of excretion [urine/bile] is also given. In addition the percentage of the administered dose of uranium cleared and chelator-induced uranium excretion vs the controls is also given. Four positive controls were evaluated: DTPA (13, Table 1) given as its trisodium calcium salt, DFO (14), N,N′-bis(2hydroxybenzyl)ethylenediamine-N,N′-diacetic acid, monosodium salt (NaHBED, 15) and the hydroxypyridone CP94 (16) shown to bind uranium [Pashalidis, et al., Effective complex formation in the interaction of 1,2-dimethyl-3-hydroxypyrid-4-one (Deferiprone or L1) with uranium(VI), Journal of Radioanalytical and Nuclear Chemistry 1999; 242:181-184.] The total metal cleared after 24 h in control rats was 10% of the administered dose. When DTPA, 13, was given IP or PO at 300 μmol/kg immediately after uranium, the excretion was 17% and 8% of the administered dose respectively (p>0.05). However, when the drug was given IP at a dose of 600 μmol/kg immediately post-metal, the uranium excretion was significant, 20% (p<0.005). This is consistent with previously published data using a similar animal model.[Domingo, et al., Comparative effects of the chelators sodium 4,5-dihydroxybenzene-1,3-disulfonate (Tiron) and diethylenetriaminepentaacetic acid (DTPA) on acute uranium nephrotoxicity in rats, Toxicology 1997; 118:49-59] DFO (14) and CP94 (16) given IP immediately post uranyl acetate were ineffective.
The most promising analogue in the (S)-2-(2,4-dihydroxyphenyl)-4,5-dihydro-4-thiazolinecarboxylic series is the methoxy analogue (S)-4′-(CH3O)-DADMDFT (11). Given IP at 300 μmol/kg 0.5 h before uranyl acetate or immediately thereafter, nearly 30% of the metal was cleared (Table 1). This was also true if the drug was given IP 0.5 or 2 h post metal. The drug retains some efficacy given 4 h post uranium; 16% of the metal is excreted (p<0.006). When the chelator was given SC immediately post uranium, 40% of the administered metal was cleared. The increased excretion is probably associated with a slower absorption of the ligand. The data from rodents given the drug orally is even more encouraging (Table 1). […] The most profound data are associated with uranium decorporation from the kidneys (FIG. 3). When DTPA is given IP or PO at a dose of 300 μmol/kg immediately post metal, there is no reduction in renal uranium relative to controls. However, (S)-4′-(CH3O)-DADMDFT (11) given orally at a dose of 300 μmol/kg immediately post metal reduces renal uranium by 37% (p<0.005).
There is a small (16%) reduction when the drug is given PO at a dose of 300 μmol/kg 2 h post uranium. However, when 11 is given PO at a dose of 600 μmol/kg 0.5 h post metal, the renal uranium content is reduced by 76% (p<0.001). When given PO at the same dose 1 h post uranium exposure, the reduction is still significant, 42% (p<0.006). In all sets of ligands, the most lipophilic chelator is always the most toxic. […] On the basis of this finding, a less lipophilic, more water-soluble ligand than 12 was assembled, (S)-4′-(HO)-DADFT-PE (18, Table 1), a polyether analogue.

[4] = GLP toxicity and pharmacokinetics profile (NIH Roadmap Program); assay type: in vivo
Text: 7. This same ligand (11) has now been run through the NIH Roadmap Program and a complete GLP toxicity and pharmacokinetics profile is available.

## COc1ccc(C2=N[C@@H](C(=O)O)CS2)c(O)c1 [Compound 11, (S)-2-(2-hydroxy-4-methoxyphenyl)-4,5dihydro-4-thiazolecarboxylic acid]
[1]
  metabolite formed by metabolic O-demethylation: (S)-4′-(HO)-DADMDFT (9)
[2]; 300 μmol/kg IP 0.5 h Post
  % of Administered Dose Cleared: ~30%
[2]; 300 μmol/kg IP 0.5 h Post, listed as (S)-4′-(CH3O)-DADMDFT
  % of Administered Dose Cleared: ~30%
[2]; 300 μmol/kg IP 0.5 h Pre
  % of Administered Dose Cleared: ~30%
[2]; 300 μmol/kg IP 0.5 h Pre, listed as (S)-4′-(CH3O)-DADMDFT
  % of Administered Dose Cleared: ~30%
[2]; 300 μmol/kg IP 2 h Post
  % of Administered Dose Cleared: ~30%
[2]; 300 μmol/kg IP 4 h Post
  % of Administered Dose Cleared: 16%
[2]; 300 μmol/kg IP Immediate
  % of Administered Dose Cleared: ~30%
[2]; 300 μmol/kg PO 2 h Post
  % of Administered Dose Cleared: 18%
[2]; 300 μmol/kg PO Immediate
  % of Administered Dose Cleared: 23%
[2]; 300 μmol/kg SC Immediate
  % of Administered Dose Cleared: 40%
[2]; 600 μmol/kg PO 0.5 h Post
  % of Administered Dose Cleared: 25%
[2]; 600 μmol/kg PO 1 h Post
  % of Administered Dose Cleared: 26%
[3]; PO 300 μmol/kg 2 h post uranium
  reduction in renal uranium: 16%
[3]; PO 300 μmol/kg immediately post metal
  reduction in renal uranium relative to controls: 37%
[3]; PO 600 μmol/kg 0.5 h post metal
  reduction in renal uranium content: 76%
[3]; PO 600 μmol/kg 1 h post uranium exposure
  reduction in renal uranium content: 42%
[4]
  no-observed-adverse-effect-level: well within the range of expected human dosing requirements
